Patent US5349127A, “Expression of herbicide metabolizing cytochromes P450” (priority 1992, dated 1994)

Key:
Assay in all cases: Percent conversion of non-sulfonylurea herbicides (Example 29)
S. griseolus ATCC11796 = assay type: in vitro ADME, Streptomyces griseolus; details: 3.0 mg herbicide in 25 ml broth; 18 hours
Procedure: (§1) This experiment was performed as in Example 17 with the following changes. Separate cultures (50 ml) inoculated with S. lividans C37, S. lividans transformed with pCAO200SU1-FeS-B#9, or S. griseolus ATCC11796 were cultured in sporulation broth for 18 hours at 30° C. with shaking. Each culture was then resuspended in 25 ml fresh sporulation broth and 3.0 mg herbicide added. Each culture was reincubated for 18 hours, then an aliquot of the medium was withdrawn and analyzed by HPLC. The percent conversion of herbicide was determined.

S. lividans C37 = assay type: in vitro ADME, Streptomyces lividans; details: 3.0 mg herbicide in 25 ml broth; 18 hours
Procedure: as §1

[1] = test system: S. lividans pCAO200SU1-FeS-B#9; assay type: in vitro ADME, Streptomyces lividans
Procedure: as §1

CCc1cnc(C2=NC(C)(C(C)C)C(=O)N2)c(C(=O)O)c1 (stereo not shown) [compound 10034]
Percent Conversion (S. griseolus ATCC11796): 13% | Percent Conversion (S. lividans C37): 10% | Percent Conversion ([1]; 3.0 mg herbicide in 25 ml broth, 18 hours): 69% | metabolism by bacteria containing constitutively expressed P450SU1 ([1]; summary of Table 29): metabolized
